Measurements published in paper PMC6274376, “Naturally Inspired Molecules as Multifunctional Agents for Alzheimer’s Disease Treatment” (Molecules, 2016).
“And” between values parts separate entries of the source, which are not always exact repeats. Identical values can stand only once.

What was measured:
SH-SY5Y cells [1] = experiment: Neurotoxicity, MTT cell viability assay; type: cell-based, human; details: SH-SY5Y cells, MTT
Method: Cytotoxic effects in several in vitro or in vivo models have been reported for some chalcones. Therefore, to discriminate the neurotoxic concentrations of the conjugates 3–5 we evaluated the cell viability of human neuronal SH-SY5Y cells after 24 h treatment with these conjugate at different concentrations (1.25–40 μM) using the MTT assay. […] Thus, the presence of an α,β-unsatured carbonyl fragment seems to positively influence the degree of neuronal toxicity, leading to molecules endowed with a favorable SI.
Human neuronal (SH-SY5Y) cells were routinely grown in Dulbecco’s modified Eagle’ Medium (DMEM) supplemented with 10% fetal bovine serum, 2 mmol/L-glutamine, 50 U·mL^−1penicillin and 50 μg·mL^−1streptomycin at 37 °C in a humidified incubator with 5% CO2.
To evaluate the neurotoxicity of compounds, the SH-SY5Y cells were seeded in 96-well plates at 2 × 10^4 cells/well, incubated for 24 h and subsequently treated with various concentrations of compounds (1.25–40 µM) for 24 h at 37 °C in 5% CO2;. The cell viability in terms of mitochondrial metabolic function was evaluated by the reduction in 3-(4,5-dimethyl-2-thiazolyl)-2,5-diphenyl-2H-tetrazolium bromide (MTT) to formazan as previously described. The quantity of formazan was directly proportional to the number of viable cells. Briefly, the treatment medium was replaced with MTT (5 mg/mL) in phosphate-buffered saline (PBS) for 2 h at 37 °C in 5% CO2. After washing with PBS, the formazan crystals were dissolved with isopropanol. The amount of formazan was measured (570 nm, reference filter 690 nm) using a multilabel plate reader (VICTOR™ X3, PerkinElmer, Waltham, MA, USA). The neurotoxicity is expressed as concentration of compound resulting in 50% inhibition of cell viability.

[2] = Cu(II) chelating assay (bathocuproinedisulfonic acid disodium salt, BCS); type: physicochemical
Method: Data were expressed as chelating activity percentage (Table 2).
The Cu(II) chelating activity of the compounds was determined using the bathocuproinedisulfonic acid disodium salt (BCS) assay as previously described. Briefly, 50 μL of a 0.25 mM CuSO4 solution were mixed for 2 min with 50 μL of 5–20 µM compound solution in 100 µL of HEPES buffer (15 mM). Hydroxylamine (1 mM) was added after 2 min in order to reduce non-chelated cupric ions into cuprous ones. Finally, 50 μL of BCS (5 mM) or water (blank) was added and the absorbance at 490 nm was measured by spectrophotometry using a multilabel plate reader (VICTOR™ X3, PerkinElmer, Waltham, MA, USA) immediately and at 5 min. Na2EDTA (5–20 µM) was used as a positive control. The ability of the test compounds to chelate cupric ions was calculated using the following equation: chelating activity (%) = [1 − (Abs BCS + compound/Abs BCS) × 100].

SH-SY5Y cells [3] = experiment: Inhibition of Cu(II)-mediated intracellular ROS formation (H2DCF-DA probe); type: cell-based, human; details: 5 and 10 µM compound, H2O2 (100 µM)/CuSO4 (25 µM), 30 min
Method: Our attention was then focused on the study of the intracellular antioxidant effect mediated by Cu(II) chelation. Therefore, compound 5 was selected to be studied in SH-SH5Y cells for its ability to counteract ROS formation elicited by Fenton reaction with CuSO4 (25 µM) and H2O2 (100 µM), and using 2′,7′-dichlorodihydrofluorescein diacetate (H2DCF-DA) as the fluorescent probe.
The intracellular antioxidant activity of the compounds was evaluated in SH-SY5Y cells as previously described with minor changes. Briefly, the SH-SY5Y cells were seeded in 96-well plates at 3 × 10^4 cells/well and incubated for 24 h at 37 °C in 5% CO2. […] The ROS formation was measured (excitation at 485 nm and emission at 535 nm) using a multilabel plate reader (VICTOR™ X3). The values are expressed as arbitrary fluorescence units (AUF).
Figure 2 Effect of compound 5 on ROS formation elicited by H2O2/CuSO4 in SH-SY5Y cells. […] At the end of the incubation, intracellular ROS formation was determined using a fluorescence probe, as described in the Materials and Methods section. The arbitrary units of fluorescence (AUF) values are shown as mean ± SD of at least three independent experiments (^### P < 0.001 versus untreated cells, *** P < 0.001 versus cells treated with H2O2/CuSO4, at ANOVA with Bonferroni’s Post Hoc Test).

[4] = UV-vis spectrophotometric evaluation of Cu(II) ion complexation; type: physicochemical
Description: Chalcone conjugates 4 and 5 were investigated to evaluate their ability to complex Cu(II) ions via a UV-vis spectrophotometric study.
Therefore, we decided to carry on the spectrophotometric measurements in a mixed solvent: aqueous MOPS aqueous buffer […] pH 7.4 /DMF in 1:4 ratio, respectively. Flavonoids bearing the 4-carbonyl-5-hydroxyl chelation site have characteristic UV-vis spectra, characterized by a wide and non-structured band centred around 370–380 nm, with a molar extinction coefficient of 50,000 cm^−1·M^−1 that is attributed to HOMO-LUMO transition with a π-π* character.
All reagents and solvents were used as received (from Aldrich, St. Louis, MO, USA) without further purification: copper(II) sulphate hydrate (≥98%), 3-(N-Morpholino)propanesulfonic acid (MOPS, ≥99.5%), sodium hydroxide (≥98%), N,N-dimethylformamide (spectroscopic grade, DMF). A Milli-Q system (Millipore, Billerica, MA, USA) was used for the purification of water (resistivity ≥18.2 MΩ). MOPS bufferstock solution were obtained by a dissolution in Milli-Q water of 3-(N-morpholino)propane sulphonic acid to a final concentration of 10^−3 M. The pH was corrected with a solution of sodium hydroxide 1 N to a value of pH 7.4. Absorption spectra were recorded on a Perkin-Elmer Lambda 45 spectrophotometer at room temperature. Spectrophotometric titrations were performed as follows: stock solutions of ligands (ca. 10^−3 M) were prepared in DMF, diluted down to the desired concentration, in the quartz cuvette, in MOPS buffer 10^−3 M pH 7.4/DMF (1:4) to a final volume of 2.5 mL and then titrated by adding increasing amounts of Cu(II) (3.04 × 10^−3 Min DMF).

CN(Cc1ccccc1)Cc1ccc(C(=O)c2ccc(OCCOc3ccc(C(=O)/C=C/c4cccc5ccccc45)c(O)c3)cc2)cc1 [Compound 5, E-1-{4-[2-(4-4-Benzylmethylaminomethylbenzoylphenoxy)ethoxy]-2-hydroxyphenyl}-3-(naphthalen-1-yl)-prop-2-en-1-one]
IC50 (SH-SY5Y cells [1]; Homo sapiens, 24 h treatment, 1.25–40 µM, mean ± SD): > 40 µM
neurotoxic effects (SH-SY5Y cells [1]; 24 h, 1.25–40 μM): not
Cu(II)-Chelating Activity ([2]; 5 µM compound, fixed 40 µM CuSO4): 9.48%
Cu(II)-Chelating Activity ([2]; 10 µM compound, fixed 40 µM CuSO4): 13.78%
Cu(II)-Chelating Activity ([2]; 20 µM compound, fixed 40 µM CuSO4, mean ± SD): 19.73% and 19.73 ± 0.30%
ROS formation evoked by H2O2/CuSO4 (arbitrary fluorescence units) (SH-SY5Y cells [3]): significantly decreased
ability to complex Cu(II) ions ([4]; UV-vis spectra, MOPS buffer pH 7.4/DMF 1:4): able to chelate the selected ion
association constant (order of magnitude) ([4]; estimated from titration data, 1:1 complex stoichiometry with Cu(II), MOPS pH 7.4/DMF 1:4): ~10^4
